Measurements taken from patent US20060088545A1, “Use of inhibitors of the protease of the human immunodeficiency virus (hiv) to block cell migration and/or invasion, tissue infiltration and oedema for the therary of diseases associated therewith” (priority 2001, published 2006).
Entries after “also recorded” stand apart in the source; their conditions may differ.

How the values were obtained:
[1] = test system: smooth muscle cells; assay: Invasion assay of smooth muscle cells in response to bFGF; format: cell-based, human
Description: Assays have been essentially performed as described in key to FIGS. 1 and 3. […] Data of duplicate experiments (mean) are shown.

[2] = test system: KS cells; assay: KS cell adhesion to fibronectin; format: cell-based, human
[3] = test system: hepato-carcinoma (SK-Hep-1) cells; assay: Invasion assay of SK-Hep-1 cells in response to bFGF; format: cell-based, human; settings: 0.1, 1 or 10 μM
Protocol: (§1) The invasion assays were performed in the Boyden chamber. Polycarbonate filters (8 μM pores; Nucleoprobe, Cabin John, Md.) were coated first with collagen IV and then with Matrigel (Collaborative Biomedical Products) as described previously (Barillari et al., 1999b). […] Human recombinant bFGF (50 ng/ml) was placed in the lower compartment as chemo-attractant. […] Louis, Mo.). Ten random filter fields were counted by light microscopy as described previously (Barillari et al., 1999b).

[4] = test system: lung carcinoma (A549) cells; assay: Invasion assay of A549 cells in response to bFGF; format: cell-based, human; settings: 0.1, 1 or 10 μM
Protocol: as §1, with “([…]” for “(8”

[5] = test system: breast carcinoma cells (MDA-MB-468); assay: Cell growth assay of MDA-MB-468 cells; format: cell-based, human; settings: 10 μM; 4 days
Protocol: Shown is the result of a representative cell growth assay performed on the breast carcinoma cells. Human breast carcinoma cells (MDA-MB468; ATCC) were plated in triplicate (8×10^4 cells/well) in 12-well plates. […] Ensoli et al., 1994b): For all the in vitro studies HIV-PI as endotoxin-free pure powder (a kind gift of Merck Sharp & Dohme and Roche) were resuspended in distilled water. Assays were repeated at least three times.

[6] = test system: myelo-monocytic leukaemia (U937) cells; assay: Invasion assay of U937 cells in response to bFGF; format: cell-based, human; settings: 1 or 10 μM
Protocol: Shown is the result of a representative invasion assay performed on the myelo-monocytic leukaemia cells U937. […] The invasion assays were performed in the Boyden chamber. Polycarbonate filters (5 μM pores; Nucleoprobe, Cabin John, Md.) were coated first with collagen IV and then with Matrigel (Collaborative Biomedical Products) as described previously (Barillari et al., 1999b). […] Human recombinant bFGF (50 ng/ml) was placed in the lower compartment as chemoattractant. […] Louis, Mo.). Ten random filter fields were counted by light microscopy as described previously (Barillari et al., 1999b). Assays were repeated two times.

[7] = test system: KS-like lesions induced by KS cells (KS12); assay: Regression of KS-like lesions induced by KS cells in nude mice, no drug pre-treatment; format: in vivo; settings: treatment started on the day of KS cell inoculation, 5 days
Protocol: Indinavir and saquinavir can also promote KS regression in the absence of any drug pre-treatment. […] Treatment was then continued for 5 days, until sacrifice. The mean size (cm^2) of the lesions present at the injection site evaluated by daily caliper measurement and calculated as the product of the two major lesion diameters is shown.
To determine whether HIV-PI can also promote KS regression in the absence of any drug pre-treatment, experiments were also performed by treating mice with HIV-PI at the time of KS cell inoculation.

[8] = test system: breast carcinoma (MDA-MB468) cells; assay: Tumour lesions induced by MDA-MB468 cells in nude mice; format: in vivo; settings: 5×10^6 cells/site; daily treatment
Protocol: FIG. 28. […] The treatment with HIV-PI or saline solution continued until sacrifice. The size of the lesions present at the injection site was evaluated daily by caliper measurement. External lesion area was then calculated as the product of the two major lesion diameters. The mean size (cm^2) of the lesions present at the injection site is shown.
To determine whether HIV-PI could inhibit the growth of malignant solid and lymphoid tumours, nude mice were inoculated with hepato-carcinoma cells (SK-Hep-1), lung carcinoma cells (A549), breast adeno-carcinoma cells (MDA-MB-468), myelo-monocytic leukaemia cells (U937), and T lymhocytic leukaemia cells (Jurkat).

[9] = test system: bFGF; assay: bFGF production by KS cells (ELISA); format: cell-based, human; settings: 0.1, 1 and 10 μM; 5 days + 24 hours
Protocol: (§2) After 24 hours of incubation, the supernatants of the cultures were tested by ELISA (R & D Systems, Minneapolis, Minn., USA) to determine the quantity of IL-6 present in the medium. The quantity of IL-6 is expressed in pg/ml of supernatant. The same tests were carried out for bFGF, VEGF, IL-1α and IL-1β by means of commercial ELISA kits.
(§3) KS cells secrete cytokines with an inflammatory, oedemigenic, angiogenic and proliferative activity with autocrine and paracrine effects (Ensoli and Stürzl, 1998). These factors mediate all the processes required for KS-like lesions formation (angiogenesis, cellular proliferation and invasion, inflammatory Infiltration, oedema) and vascular permeability and oedema induced by KS cells in nude mice. […] The quantity of bFGF, VEGF, IL-1 and IL-6 was dosed with immuno-enzymatic trials in the supernatants of the KS cells after 24 hours of culture in the absence of serum and in the continuous presence of the two HIV-PI (ELISA). […] Furthermore IL-6 plays a key role in the multicentric Cstleman's diseases and in the growth of lymphomas (Tosato et al., 1993; Peterson and Frizzera, 1993; Asou et al., 1998; Ramsay et al., 1994), another type of tumour whose incidence is reduced in patients treated with HIV-PI (International Collaboration on HIV and Cancer 2000).

[10] = test system: VEGF; assay: VEGF production by KS cells (ELISA); format: cell-based, human; settings: 0.1, 1 and 10 μM; 5 days + 24 hours
Protocol: as §2, §3

[11] = test system: IL-6; assay: IL-6 production by KS cells (ELISA); format: cell-based, human; settings: 0.1, 1 and 10 μM, 5 days + 24 hours
Protocol: as §2, §3

Question: What does the source list for `CC(C)(C)NC(=O)[C@@H]1C[C@@H]2CCCC[C@@H]2CN1C[C@@H](O)[C@H](Cc1ccccc1)NC(=O)[C@H](CC(N)=O)NC(=O)c1ccc2ccccc2n1` [Saquinavir, saquinavir]?
Answer: invasion in response to bFGF [1]: inhibit; capability of the KS cells to adhere to a substrate of fibronectin [2]: do not inhibit; invasive capacity in response to bFGF [3]: inhibit; invasive capacity in response to bFGF [4]: inhibit; proliferation [5]: do not interfere; invasive capacity in response to bFGF [6]: inhibit; regression of KS-like lesions (lesion size) [7]: promote the regression; development of tumour lesions (lesion size) [8]: inhibit; production of bFGF by KS cells [9]: reduced; production of VEGF by KS cells [10]: reduced; production of IL-6 by KS cells [11]: reduced; also recorded: inhibited

Question: What does the source list for `CC(C)(C)NC(=O)[C@@H]1CN(Cc2cccnc2)CCN1C[C@@H](O)C[C@@H](Cc1ccccc1)C(=O)N[C@H]1c2ccccc2C[C@H]1O` [Indinavir, indinavir]?
Answer: invasion in response to bFGF [1]: inhibit; capability of the KS cells to adhere to a substrate of fibronectin [2]: do not inhibit; invasive capacity in response to bFGF [3]: inhibit; invasive capacity in response to bFGF [4]: inhibit; proliferation [5]: do not interfere; invasive capacity in response to bFGF [6]: inhibit; regression of KS-like lesions (lesion size) [7]: promote the regression; development of tumour lesions (lesion size) [8]: inhibit; production of bFGF by KS cells [9]: reduced; production of VEGF by KS cells [10]: reduced; production of IL-6 by KS cells [11]: inhibited; production of IL-6 by KS cells ([11]; listed as indinavir): reduced
